For assay [1], the target named is human calcitonin receptor (CTR) and RAMP3 (AMY3) in COS-7 cells (Homo sapiens, UniProt O60896+P30988). In words: Amylin Receptor cAMP Assay I. Format: cell-based. The note with it: values marked *: Amylin Receptor cAMP Assay I; COS-7/AMY3 cells; read-out: Amylin Receptor cAMP Stimulation Activity: EC50. In a few lines:
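COS-7 cells stably co-expressing human CTR and RAMP3 (AMY3) were stimulated with serially diluted compounds (4-fold) in DPBS with 0.5 mM IBMX and 0.1% BSA for 30 min at 37 °C, 1000 cells/well. cAMP accumulation was measured by HTRF (cAMP-d2/anti-cAMP cryptate, 1 h RT) read at 665/615 nm.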

The target in assay [2] is T1, human calcitonin receptor (CTR) in COS-7 cells (Homo sapiens, UniProt P30988).
T1 construct: expressed in transfected cells; host or cells: COS-7 (COS7-human CTR Clone #2)
T1 sequence (P30988 25-474): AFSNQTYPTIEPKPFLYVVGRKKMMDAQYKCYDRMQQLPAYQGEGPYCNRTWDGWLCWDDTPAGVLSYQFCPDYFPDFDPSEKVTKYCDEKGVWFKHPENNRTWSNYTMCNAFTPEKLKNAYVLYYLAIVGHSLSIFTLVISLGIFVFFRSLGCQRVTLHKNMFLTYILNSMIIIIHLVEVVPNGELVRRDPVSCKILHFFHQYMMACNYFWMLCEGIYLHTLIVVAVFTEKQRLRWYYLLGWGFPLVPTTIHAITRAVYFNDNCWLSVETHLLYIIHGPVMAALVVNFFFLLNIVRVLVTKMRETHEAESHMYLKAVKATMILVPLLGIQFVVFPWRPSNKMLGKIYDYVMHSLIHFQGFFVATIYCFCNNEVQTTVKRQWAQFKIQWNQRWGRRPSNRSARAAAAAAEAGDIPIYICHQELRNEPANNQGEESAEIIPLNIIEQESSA
In words: Calcitonin Receptor (CTR) cAMP Assay. Format: cell-based. The note with it: COS7-human CTR Clone #2 cells; read-out: Calcitonin Receptor cAMP Stimulation Activity: EC50. The text has this: Calcitonin Receptor (CTR) cAMP Assay
The calcitonin receptor (CTR) belongs to the subfamily of GPCRs known as the secretin or ‘B’ family of GPCRs. Like other class B1 GPCRs, the CT receptor family is canonically coupled to Gs-mediated cAMP production, and measurement of cAMP accumulation has been the primary assay used to determine peptide selectivity and potency.
To optimize functional activity directed toward Gas coupling, COS-7 cells were stably transfected with human calcitonin receptor (CTR) to create COS7-human CTR Clone #2 stable cell line. 100× concentration of compound working solutions were prepared with 4-fold serial dilution in 384-well Echo LDV plate (Labcyte, Cat #LP-0200-BC). 200 nL/well 100× concentration of compound working solutions were moved to 384-well white microplate (Perkin Elmer, Cat #6007680) using Labcyte ECHO550. 1×10^5 cells/mL COS7-human CTR Clone #2 cell suspensions prepared with assay buffer [HBSS containing 20 mM HEPES (Gibco, Cat #15630-080), 0.5 mM IBMX (Sigma, Cat #15879) and 0.1% Casein (Sigma, Cat #C4765)], 20 μL cell suspensions were added to each well of previous generated assay plate which already contains 200 nL compound at 100× concentration using ThermoFisher Multidrop Combi (2000 cells/well). Seal the plate and incubate at 37° C. with 5% CO2 for 30 min.
After incubation, the cAMP assay signal was generated using cAMP dynamic 2 kit (Revvity, Cat #62AM4PEC). 10 μL cAMP-d2 working solution was added to each well, followed by […] Anti-cAMP antibody-cryptate working solution which was added to each well using CERTUS FLEX LIQUID DISPENSER. The samples were then incubated at room temperature for 1 hour protected from light. the fluorescence was read at 665 and 615 nm with Reader PerkinElmer EnVision 2105.

pEC50: −log10 of the molar value. Where only a bound is given, the exact number is not on record here.

human calcitonin receptor (CTR) and RAMP3 (AMY3) in COS-7 cells, sequence (O60896 24-148, one chain of several): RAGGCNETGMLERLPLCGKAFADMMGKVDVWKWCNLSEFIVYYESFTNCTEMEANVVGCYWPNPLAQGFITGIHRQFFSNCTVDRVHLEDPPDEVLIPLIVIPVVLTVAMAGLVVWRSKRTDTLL

Broadly, the pEC50 is the EC50 on a negative log10 scale, so that one unit is a factor of ten. Turning to `Cc1nnc(-c2c(CCc3ccc(F)cc3)nc(CC(C)C)c(C(N)=O)c2-c2ccc(C(=O)N[C@@H]3CCc4ccccc43)s2)o1` [Compound 106, N—[(R)-1-indanyl]-5-{5-carbamoyl-2-[2-(p-fluorophenyl)ethyl]-6-isobutyl-3-(5-methyl-1,3,4-oxadiazol-2-yl)-4-pyridyl}-2-thenamide], the pEC50 in assay [1] was 8.39; in assay [2], 8.68.

In the case of `Cc1nnc(-c2c(CCc3ccc(F)cc3)nc(CC(C)C)c(C(N)=O)c2-c2ccc(C(=O)NCc3ccc(F)c(F)c3)s2)o1` [Compound 107, N-(3,4-difluorophenyl)methyl-5-{5-carbamoyl-2-[2-(p-fluorophenyl)ethyl]-6-isobutyl-3-(5-methyl-1,3,4-oxadiazol-2-yl)-4-pyridyl}-2-thenamide], the pEC50 in assay [1] was 8.18; in assay [2] it was 8.80.

On to `COc1cccc2c1CC[C@H]2NC(=O)c1ccc(-c2c(C(N)=O)c(CC(C)C)nc(CCc3ccc(F)cc3)c2-c2nnc(C)o2)s1` [Compound 122, (R)-6-(4-fluorophenethyl)-2-isobutyl-4-(5-((4-methoxy-2,3-dihydro-1H-inden-1-yl)carbamoyl)thiophen-2-yl)-5-(5-methyl-1,3,4-oxadiazol-2-yl)nicotinamide], for which the pEC50 in assay [1] was 9.10; in assay [2], 9.14.

As to `Cc1nnc(-c2c(CCc3ccc(F)cc3)nc(CC(C)C)c(C(N)=O)c2-c2cc3ccnc(NCc4ccc(F)c(F)c4)c3s2)o1` [Compound 131, 4-(7-{[(3,4-difluorophenyl)methyl]amino}-1-thia-6-aza-2-indenyl)-6-[2-(p-fluorophenyl)ethyl]-2-isobutyl-5-(5-methyl-1,3,4-oxadiazol-2-yl)nicotinamide], the results for the pEC50 in assay [1] and in assay [2] were 8.36 and 9.48, respectively.

Consider `COC1CCCN(c2nccc3cc(-c4c(C(N)=O)c(CC(C)C)nc(CCc5ccc(F)cc5)c4-c4nnc(C)o4)sc23)C1` (stereo not drawn) [Compound 135, 6-(4-fluorophenethyl)-2-isobutyl-4-(7-(3-methoxypiperidin-1-yl)thieno[2,3-c]pyridin-2-yl)-5-(5-methyl-1,3,4-oxadiazol-2-yl)nicotinamide], for which the pEC50 in assay [1] was less than 6.00; in assay [2], 6.55.

For `Cc1nnc(-c2c(CCc3ccc(F)cc3)nc(CC(C)C)c(C(N)=O)c2-c2ccc3c(c2)CCC3OCc2ccc(F)c(F)c2)o1` (stereo not drawn) [Compound 142, 4-{1-[(3,4-difluorophenyl)methoxy]-5-indanyl}-6-[2-(p-fluorophenyl)ethyl]-2-isobutyl-5-(5-methyl-1,3,4-oxadiazol-2-yl)nicotinamide], the pEC50 in assay [1] is 7.03; in assay [2], 8.06.

Regarding `Cc1nnc(-c2c(CCc3ccc(F)cc3)nc(CC(C)C)c(C(N)=O)c2-c2ccc3c(ccn3CCc3ccc(F)c(F)c3)c2)o1` [Compound 144, 4-(1-(3,4-difluorophenethyl)-1H-indol-5-yl)-6-(4-fluorophenethyl)-2-isobutyl-5-(5-methyl-1,3,4-oxadiazol-2-yl)nicotinamide], the pEC50 is 7.29 in assay [1] and 8.16 in assay [2].

In the case of `Cc1nnc(-c2c(CCc3ccc(F)cc3)nc(CC(C)C)c(C(N)=O)c2-c2ccc3c(c2)CCCN3CCc2ccc(F)c(F)c2)o1` [Compound 174, 4-(1-(3,4-difluorophenethyl)-1,2,3,4-tetrahydroquinolin-6-yl)-6-(4-fluorophenethyl)-2-isobutyl-5-(5-methyl-1,3,4-oxadiazol-2-yl)nicotinamide], the results for the pEC50 in assay [1] and in assay [2] were 6.97 and 8.24, respectively.

Regarding `CCc1nc(CC(C)C)c(C(N)=O)c(-c2cc3ccnc(N[C@@H]4CCc5cc(F)ccc54)c3s2)c1-c1nnc(C)o1` [Compound 188, (R)-6-ethyl-4-(7-((5-fluoro-2,3-dihydro-1H-inden-1-yl)amino)thieno[2,3-c]pyridin-2-yl)-2-isobutyl-5-(5-methyl-1,3,4-oxadiazol-2-yl)nicotinamide], the pEC50 is 7.44 in assay [1] and 8.09 in assay [2].

As to `Cc1nnc(-c2c(C34CC(C(F)F)(C3)C4)nc(CC(C)C)c(C(N)=O)c2-c2ccc(C(=O)NCc3ccc(F)c(F)c3)s2)o1` [Compound 190, 4-(5-((3,4-difluorobenzyl)carbamoyl)thiophen-2-yl)-6-(3-(difluoromethyl)bicyclo[1.1.1]pentan-1-yl)-2-isobutyl-5-(5-methyl-1,3,4-oxadiazol-2-yl)nicotinamide], the negative-log EC50 (pEC50) was 5.39 in assay [1] and 6.13 in assay [2].

As to `CCc1nc(CC(C)C)c(C(N)=O)c(-c2ccc(C(=O)NCc3ccc(F)c(F)c3)cc2)c1-c1nnc(C)o1` [Compound 199, 4-(4-((3,4-difluorobenzyl)carbamoyl)phenyl)-6-ethyl-2-isobutyl-5-(5-methyl-1,3,4-oxadiazol-2-yl)nicotinamide], in assay [1], the pEC50 was less than 6.00.

`Cc1nnc(-c2c(CCc3ccc(F)cc3)nc(CC(C)C)c(C(N)=O)c2-c2cc3ccnc(NCc4ccccn4)c3s2)o1` [Compound 200, 6-(4-fluorophenethyl)-2-isobutyl-5-(5-methyl-1,3,4-oxadiazol-2-yl)-4-(7-((pyridin-2-ylmethyl)amino)thieno[2,3-c]pyridin-2-yl)nicotinamide]: the pEC50 in assay [1] was 6.56.

In the case of `Cc1nnc(-c2c(CCc3ccc(F)cc3)nc(CC(C)C)c(C(N)=O)c2-c2cc3ccnc(NCc4cccnc4)c3s2)o1` [Compound 201, 6-(4-fluorophenethyl)-2-isobutyl-5-(5-methyl-1,3,4-oxadiazol-2-yl)-4-(7-((pyridin-3-ylmethyl)amino)thieno[2,3-c]pyridin-2-yl)nicotinamide], the pEC50 in assay [1] was 6.42.

Take `Cc1nnc(-c2c(CCc3ccc(F)cc3)nc(CC(C)C)c(C(N)=O)c2-c2cc3ccnc(NCc4ccncc4)c3s2)o1` [Compound 202, 6-(4-fluorophenethyl)-2-isobutyl-5-(5-methyl-1,3,4-oxadiazol-2-yl)-4-(7-((pyridin-4-ylmethyl)amino)thieno[2,3-c]pyridin-2-yl)nicotinamide]: the pEC50 in assay [1] was 6.62.

With `Cc1nnc(-c2c(CC34CC(C(F)F)(C3)C4)nc(CC(C)C)c(C(N)=O)c2-c2ccc(C(=O)NCc3ccc(F)c(F)c3)s2)o1` [Compound 203, 4-(5-((3,4-difluorobenzyl)carbamoyl)thiophen-2-yl)-6-((3-(difluoromethyl)bicyclo[1.1.1]pentan-1-yl)methyl)-2-isobutyl-5-(5-methyl-1,3,4-oxadiazol-2-yl)nicotinamide], the negative logarithm of the EC50 (pEC50) in assay [1] is 6.03; in assay [2] it was 7.19.

In the case of `CC(C)Cc1nc(CCc2ccc(F)cc2)c(-c2ccn(C)n2)c(-c2ccc(C(=O)NCc3ccc(F)c(F)c3)s2)c1C(N)=O` [Compound 204, 4-(5-((3,4-difluorobenzyl)carbamoyl)thiophen-2-yl)-6-(4-fluorophenethyl)-2-isobutyl-5-(1-methyl-1H-pyrazol-3-yl)nicotinamide], the negative logarithm of the EC50 (pEC50) in assay [1] is 7.17.
